# Measurements published in patent US20080045482A1, “COMPOSITIONS AND METHODS FOR THE TREATMENT OF VIRAL INFECTIONS” (priority 2006, published 2008).
# “And” between values parts separate entries of the source, which are not always exact repeats. Equal values may be shown once.
# Key:
# [1] = Aqueous solubility; conditions: 37° C. in distilled water
# [2] = system: B/1060/03; type: cell-based, human influenza B virus
# [3] = system: A/California/2935/03 (H1N1); type: cell-based, human influenza A virus
# [4] = system: A/NorthDakota/2463/03 (H3N2); type: cell-based, human influenza A virus
# [5] = system: A/Equine1/Prague/1/56 (H3N8); type: cell-based, equine influenza A virus
# [6] = system: A/Duck/Penn/10218/84 (H5N2); type: cell-based, avian influenza A virus
# [7] = system: viral strains from avian, human and equine influenza; type: cell-based, influenza virus; conditions: read-out: IC90 concentrations
# [8] = pH in water; type: physicochemical
# [9] = Metabolism in the body
# [10] = system: HSV-2; conditions: HSV-2, in words
# [11] = system: Adenovirus type-1 (AdV-1, strain 65089); conditions: AdV-1, strain 65089, in words
# [12] = system: Punta Torro Virus (strain Adames); conditions: in words
# [13] = system: Vaccinia Virus (strain WR); conditions: in words
# [14] = system: Yellow Fever Virus (17D strain)
# [15] = system: West Nile Virus (WNV, strain New York); conditions: in words
# [16] = system: Venezuelan Equine Encephalitis Virus (VEE, Trinidad strain)
# [17] = system: Herpes Simplex Virus-1 (HSV-1); conditions: HSV-1, in words
# [18] = system: Pichinde Virus (strain 4763); conditions: Pichinde Virus strain 4763, in words
# [19] = system: Human Immunodeficiency Virus-1 (HIV-1); conditions: HIV-1, in words
# [20] = system: HIV-2; conditions: HIV-2, in words
structure (smiles),measurement,setting,value
O=C(O)P(O)(O)=S [Thiovir],aqueous solubility,[1],40.8 g/100 mL
same,IC50,[2],92 µM
same,IC50,[3],38 µM
same,IC50,[4],29 µM
same,IC50,[5],55 µM
same,IC50,[6],32 µM
same,IC90,[7],< 250 µM and ~200 µM
same,pH in water,[8],approximately 9
"O=C(O)P(O)(O)=S [TPFA, thiophosphonoformic acid]",metabolism,[9],metabolized to phosphonoformic acid and thiophosphonic acid
same,inhibitory activity,[10],has inhibitory activity
same,inhibitory activity,[11],does not have inhibitory activity
same,inhibitory activity,[12],does not have inhibitory activity
same,inhibitory activity,[13],does not have inhibitory activity
same,inhibitory activity,[3],has inhibitory activity
same,inhibitory activity,[4],has inhibitory activity
same,inhibitory activity,[14],does not have inhibitory activity
same,inhibitory activity,[5],has inhibitory activity
same,inhibitory activity,[15],does not have inhibitory activity
same,inhibitory activity,[6],has inhibitory activity
same,inhibitory activity,[16],does not have inhibitory activity
same,inhibitory activity,[17],has inhibitory activity
same,inhibitory activity,[18],does not have inhibitory activity
same,inhibitory activity,[19],has inhibitory activity
same,inhibitory activity,[20],has inhibitory activity
